According to patent US20260275249A1, “Bleach Catalyst With Improved Performance, Granule Comprising The Bleach Catalyst, And Composition Comprising Said Catalyst Or Said Granule” (Reckitt Benckiser Vanish B.V., priority 2023, published 2026):
“Also recorded” adds a separate entry of the source.

Assays:
[1] = Stability of bleach catalysts: UV-vis absorbance of solutions at pH 11; assay type: physicochemical
Experimental: The stability of bleach catalysts having the structures shown in Table 2 was determined by preparing solutions of these compounds and measuring their UV-vis absorbance.
A solution of each compound was prepared by dissolving each compound in a mixture of 50 wt. % water and 50 wt. % acetone. The concentration of each solution was 0.28 mM.
The pH of each solution was set to 11 by adding a diluted solution of sodium hydroxide.
The UV-vis absorption of each solution was measured just after preparing the samples (t=0), then at 2 h and 48 h using a UV-Vis Evolution 220 FC-1135 spectrophotometer.

[2] = Amount of solvent system needed to dissolve 0.2 g of bleach catalyst (effect of surfactant on solubility); assay type: physicochemical
Experimental: The amount of solvent needed to dilute 0.2 g of bleach catalyst 1 was determined. Subsequently solvent systems containing a solvent and 0.06 wt. % of surfactant, based on the total weight of the solvent system, were prepared, and the amount of solvent system needed to dilute 0.2 g of bleach catalyst 1 was determined. It will be recognised that for the preparation of a supported catalyst on a carrier it is necessary to dilute the bleach catalyst in a solvent system.
The results of the amount of solvent system without surfactant and solvent system with surfactant needed to dissolve 0.2 g of bleach catalyst 1 are shown in Table 5.

[3] = t = 0, 0.28 mM in 50 wt. % water / 50 wt. % acetone
[4] = t = 48 h, 0.28 mM in 50 wt. % water / 50 wt. % acetone

Absorption at 445 nm [1, 3] | Appearance [1, 3] | Absorption at 445 nm [1, 4] | Appearance [1, 4] | Amount of solvent system needed to dissolve 0.2 g of bleach catalyst ([2]; Acetone) [g] | Amount of solvent system needed to dissolve 0.2 g of bleach catalyst ([2]; Acetone with 0.06 wt. % surfactant (ROKAnol L7A)) [g] | Amount of solvent system needed to dissolve 0.2 g of bleach catalyst ([2]; Ethyl acetate) [g] | Amount of solvent system needed to dissolve 0.2 g of bleach catalyst ([2]; Ethyl acetate with 0.06 wt. % surfactant (ROKAnol L7A)) [g] | Amount of solvent system needed to dissolve 0.2 g of bleach catalyst ([2]; Tetrahydrofuran) [g] | Amount of solvent system needed to dissolve 0.2 g of bleach catalyst ([2]; Tetrahydrofuran with 0.06 wt. % surfactant (ROKAnol L7A)) [g] | Compound
<0.05 | Transparent | <0.05 | Transparent | – | – | – | – | – | – | CC(C)(C)C1=NS(=O)(=O)c2ccccc21 [Bleach catalyst C, 3-tert-butyl-1,2-benzisothiazole-1,1-dioxide]
<0.05 | Transparent | <0.05 | Transparent | 5 | 2.5 | 13 | 11 | 3.5 | 2.75 | O=S1(=O)N=C(c2ccccn2)c2ccccc21 [Bleach catalyst 1, 3-(33yridine-2-yl)-1,2-benzisothiazole-1,1-dioxide]
<0.05 | Transparent | <0.05 | Transparent | – | – | – | – | – | – | O=S1(=O)N=C(c2ccccc2)c2ccccc21 [Bleach catalyst B, 3-phenyl-1,2-benzisothiazole-1,1-dioxide]

Compound | Absorption at 445 nm [1, 3] | Appearance [1, 3] | Absorption at 445 nm [1, 4] | Appearance [1, 4] | Amount of solvent system needed to dissolve 0.2 g of bleach catalyst ([2]; Acetone) [g] | Amount of solvent system needed to dissolve 0.2 g of bleach catalyst ([2]; Acetone with 0.06 wt. % surfactant (ROKAnol L7A)) [g] | Amount of solvent system needed to dissolve 0.2 g of bleach catalyst ([2]; Ethyl acetate) [g] | Amount of solvent system needed to dissolve 0.2 g of bleach catalyst ([2]; Ethyl acetate with 0.06 wt. % surfactant (ROKAnol L7A)) [g] | Amount of solvent system needed to dissolve 0.2 g of bleach catalyst ([2]; Tetrahydrofuran) [g] | Amount of solvent system needed to dissolve 0.2 g of bleach catalyst ([2]; Tetrahydrofuran with 0.06 wt. % surfactant (ROKAnol L7A)) [g]
CC1=NS(=O)(=O)c2ccccc21 [Bleach catalyst A, 3-methyl-1,2-benzisothiazole-1,1-dioxide] | <0.05 | Transparent | 0.37 | coloured/yellow; also recorded: Yellowing | – | – | – | – | – | –
O=S1(=O)N=C(c2cccnc2)c2ccccc21 [Bleach catalyst 2, 3-(pyridine-3-yl)-1,2-benzisothiazole-1,1-dioxide] | <0.05 | Transparent | <0.05 | Transparent | – | – | – | – | – | –
